Results as given in the supplement of paper PMC5908809.

Experiments:
[1] = system: normal NK cells expanded with K562-aAPC; experiment: percent inhibition of viability; higher = more inhibition; settings: 72 h, IL-2 2.5 ng/mL
Method: (§1)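 Drug sensitivity and resistance testing on K562-aAPC-expanded normal NK cells: 5 concentrations (10-fold steps over a 10,000-fold range), 72 h at 37 °C, viability by CellTiter-Glo normalised to DMSO and benzethonium chloride controls; DSS from the fitted curve.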

IMC-1 (IL-2 20 ng/mL) [2] = experiment: as above; settings: 72 h
[3] = system: normal primary NK cells, pool 2 (3 donors) (IL-2 2.5 ng/mL); experiment: as above; settings: 72 h
[4] = system: normal primary NK cells, pool 3 (3 donors) (IL-2 2.5 ng/mL); experiment: as above; settings: 72 h
[5] = system: normal NK cells expanded with K562-aAPC; experiment: drug sensitivity score (DSS) (DSS units); higher = more sensitive; extreme values may be limits of the assay; settings: 72 h; IL-2 2.5 ng/mL
Method: as §1

IMC-1 (IL-2 20 ng/mL) [6] = experiment: as above; settings: 72 h
[7] = system: normal primary NK cells, pool 2 (3 donors) (IL-2 2.5 ng/mL); experiment: as above; settings: 72 h
[8] = system: normal primary NK cells, pool 3 (3 donors) (IL-2 2.5 ng/mL); experiment: as above; settings: 72 h
DERL-7 (IL-2 2.5 ng/mL) [9] = experiment: percent inhibition of viability; higher = more inhibition; settings: 72 h
KAI3 (IL-2 2.5 ng/mL) [10] = experiment: as above; settings: 72 h
KHYG-1 (IL-2 2.5 ng/mL) [11] = experiment: as above; settings: 72 h
NK-92 (IL-2 2.5 ng/mL) [12] = experiment: as above; settings: 72 h
NK-YS (IL-2 2.5 ng/mL) [13] = experiment: as above; settings: 72 h
NKL (IL-2 2.5 ng/mL) [14] = experiment: as above; settings: 72 h
SNK-6 (IL-2 2.5 ng/mL) [15] = experiment: as above; settings: 72 h
YT (IL-2 2.5 ng/mL) [16] = experiment: as above; settings: 72 h
[17] = system: normal primary NK cells, pool 1 (3 donors) (IL-2 2.5 ng/mL); experiment: as above; settings: 72 h
[18] = system: normal primary NK cells, pool 1 (3 donors), resting (IL-2 0 ng/mL); experiment: as above; settings: 72 h
DERL-7 (IL-2 2.5 ng/mL) [19] = experiment: drug sensitivity score (DSS) (DSS units); higher = more sensitive; extreme values may be limits of the assay; settings: 72 h
KAI3 (IL-2 2.5 ng/mL) [20] = experiment: as above; settings: 72 h
KHYG-1 (IL-2 2.5 ng/mL) [21] = experiment: as above; settings: 72 h
NK-92 (IL-2 2.5 ng/mL) [22] = experiment: as above; settings: 72 h
NK-YS (IL-2 2.5 ng/mL) [23] = experiment: as above; settings: 72 h
NKL (IL-2 2.5 ng/mL) [24] = experiment: as above; settings: 72 h
SNK-6 (IL-2 2.5 ng/mL) [25] = experiment: as above; settings: 72 h
YT (IL-2 2.5 ng/mL) [26] = experiment: as above; settings: 72 h
[27] = system: normal primary NK cells, pool 1 (3 donors) (IL-2 2.5 ng/mL); experiment: as above; settings: 72 h
[28] = system: normal primary NK cells, pool 1 (3 donors), resting (IL-2 0 ng/mL); experiment: as above; settings: 72 h

CCCCCCCCCCCCCCCCCCOP(=O)([O-])OC1CC[N+](C)(C)CC1 [Perifosine] (max concentration tested 2500 nM)
percent inhibition of viability [%]
Settings	0.25 nM	2.5 nM	25 nM	250 nM	2500 nM
IMC-1 (IL-2 20 ng/mL) [2]	-3.43	-7.43	0.31	2.67	10.9
[1]	-10.4	-4.12	-6.08	9.36	14
[3]	-4.58	-3.48	-0.26	4.53	7.26
[4]	-6.26	-5.2	0.44	3.24	9.26

Settings	drug sensitivity score
IMC-1 (IL-2 20 ng/mL) [6]	0.06
[5]	0.73
[7]	0
[8]	0

C/C(=C\c1csc(C)n1)[C@@H]1C[C@@H]2O[C@]2(C)CCC[C@H](C)[C@H](O)[C@@H](C)C(=O)C(C)(C)[C@@H](O)CC(=O)N1 [Ixabepilone] (max concentration tested 1000 nM)
percent inhibition of viability [%]
Settings	0.1 nM	1 nM	10 nM	100 nM	1000 nM
DERL-7 (IL-2 2.5 ng/mL) [9]	-1.92	-1.52	3.37	-3.24	99.5
IMC-1 (IL-2 20 ng/mL) [2]	-7.65	-4.14	-5.18	-8.88	99.5
KAI3 (IL-2 2.5 ng/mL) [10]	-14.5	-15	-11.8	-8.42	52.3
KHYG-1 (IL-2 2.5 ng/mL) [11]	-4.44	-6.03	-7.83	2.2	99.9
NK-92 (IL-2 2.5 ng/mL) [12]	-7.7	-17.5	-9.17	-20.4	92
NK-YS (IL-2 2.5 ng/mL) [13]	-10.3	-9.56	-5.83	-4.02	68.7
NKL (IL-2 2.5 ng/mL) [14]	1.14	-23.1	-11	-7.09	87.4
SNK-6 (IL-2 2.5 ng/mL) [15]	6.18	12.8	-13.9	-4.41	75.4
YT (IL-2 2.5 ng/mL) [16]	-0.47	-4.36	-8.15	1.21	92.3
[1]	-1.18	-8.46	-3.17	-2.89	56.2
[3]	-8.83	-5.74	-1.71	-8.89	4.45
[4]	-11.4	-5.18	-5.26	-11.3	0.09
[17]	-13	-15.1	-13.4	-8.88	-3.61
[18]	-34.8	-25.5	-23.3	-10.4	-12

Settings	drug sensitivity score
DERL-7 (IL-2 2.5 ng/mL) [19]	5.27
IMC-1 (IL-2 20 ng/mL) [6]	4.92
KAI3 (IL-2 2.5 ng/mL) [20]	2.26
KHYG-1 (IL-2 2.5 ng/mL) [21]	5.84
NK-92 (IL-2 2.5 ng/mL) [22]	4.08
NK-YS (IL-2 2.5 ng/mL) [23]	3.45
NKL (IL-2 2.5 ng/mL) [24]	4.34
SNK-6 (IL-2 2.5 ng/mL) [25]	3.82
YT (IL-2 2.5 ng/mL) [26]	5.3
[5]	2.77
[7]	0
[8]	0
[27]	0
[28]	0

Nc1cc(F)ccc1NC(=O)/C=C/c1cnn(C/C=C/c2ccccc2)c1 [RGFP966] (max concentration tested 10000 nM)
percent inhibition of viability [%]
Settings	1 nM	10 nM	100 nM	1000 nM	10000 nM
DERL-7 (IL-2 2.5 ng/mL) [9]	-5.83	-2.09	9.7	22.7	77.1
IMC-1 (IL-2 20 ng/mL) [2]	-2.38	0.66	0.87	7.16	19.2
KAI3 (IL-2 2.5 ng/mL) [10]	3.23	7.54	1.59	11.1	70.5
KHYG-1 (IL-2 2.5 ng/mL) [11]	-1.2	0.69	1.5	8.74	43.4
NK-92 (IL-2 2.5 ng/mL) [12]	3.38	1.97	18.1	20.7	79.9
NK-YS (IL-2 2.5 ng/mL) [13]	-1.47	0.43	1.84	5.06	33.6
NKL (IL-2 2.5 ng/mL) [14]	-2.36	10.4	5.66	29.4	82.3
SNK-6 (IL-2 2.5 ng/mL) [15]	6.08	7.31	9.67	21	62.2
YT (IL-2 2.5 ng/mL) [16]	-2.17	-1.29	1.57	1.53	26.1
[1]	4.29	0.23	1.76	9.82	9.19
[3]	-11.2	-8.68	8.11	0.44	9.58
[4]	-1.19	-0.09	10.8	-6.25	4.39
[17]	-6.12	-12	2.42	-14.4	-7.06
[18]	0.87	-9.67	-2.19	-2.37	16.1

Settings	drug sensitivity score
DERL-7 (IL-2 2.5 ng/mL) [19]	7.16
IMC-1 (IL-2 20 ng/mL) [6]	1.17
KAI3 (IL-2 2.5 ng/mL) [20]	5.75
KHYG-1 (IL-2 2.5 ng/mL) [21]	3.64
NK-92 (IL-2 2.5 ng/mL) [22]	6.98
NK-YS (IL-2 2.5 ng/mL) [23]	2.39
NKL (IL-2 2.5 ng/mL) [24]	8.18
SNK-6 (IL-2 2.5 ng/mL) [25]	5.69
YT (IL-2 2.5 ng/mL) [26]	1.24
[5]	0
[7]	0
[8]	0
[27]	0
[28]	0.22

N[C@@H]1CCCN(c2c(/C=C3\SC(=O)NC3=O)cccc2-c2ccccc2)C1 [AZD1208] (max concentration tested 10000 nM)
percent inhibition of viability [%]
Settings	1 nM	10 nM	100 nM	1000 nM	10000 nM
DERL-7 (IL-2 2.5 ng/mL) [9]	1.77	2.67	16.4	40.2	56.5
IMC-1 (IL-2 20 ng/mL) [2]	-4.38	-1.65	-10.7	-5.11	-8.15
KAI3 (IL-2 2.5 ng/mL) [10]	-0.84	0.89	7.33	28.1	34.3
KHYG-1 (IL-2 2.5 ng/mL) [11]	-4.34	-1.4	1.04	10.7	23.3
NK-92 (IL-2 2.5 ng/mL) [12]	-9.08	-8.5	-4.31	0.29	9
NK-YS (IL-2 2.5 ng/mL) [13]	-4.63	0.2	2.23	14.4	31.6
NKL (IL-2 2.5 ng/mL) [14]	-10.7	-16.5	4.37	35.7	49.5
SNK-6 (IL-2 2.5 ng/mL) [15]	-0.39	4.45	-2.55	5.71	12
YT (IL-2 2.5 ng/mL) [16]	-7.46	-4.31	-0.8	3.09	7.52
[1]	-4.31	-0.72	10.2	26	28.9
[3]	-5.92	-0.84	8.9	12.8	19.5
[4]	-9.02	-6.59	-2.09	5.05	11.5
[17]	-8.45	-3.78	9.24	17.3	18.6
[18]	-10.1	0.65	23.9	23.6	23

Settings	drug sensitivity score
DERL-7 (IL-2 2.5 ng/mL) [19]	9.28
IMC-1 (IL-2 20 ng/mL) [6]	0
KAI3 (IL-2 2.5 ng/mL) [20]	5.48
KHYG-1 (IL-2 2.5 ng/mL) [21]	1.82
NK-92 (IL-2 2.5 ng/mL) [22]	0
NK-YS (IL-2 2.5 ng/mL) [23]	2.84
NKL (IL-2 2.5 ng/mL) [24]	7.1
SNK-6 (IL-2 2.5 ng/mL) [25]	0.26
YT (IL-2 2.5 ng/mL) [26]	0
[5]	5.29
[7]	1.86
[8]	0.17
[27]	3.28
[28]	6.52

CCCNC(=O)Nc1ccc(Oc2ncnc3cc(OC)c(OC)cc23)cc1Cl [KRN-633] (max concentration tested 2500 nM)
percent inhibition of viability [%]
Settings	0.25 nM	2.5 nM	25 nM	250 nM	2500 nM
DERL-7 (IL-2 2.5 ng/mL) [9]	-3.34	5.83	-0.63	-4.25	1.83
IMC-1 (IL-2 20 ng/mL) [2]	-4.82	-0.52	-0.33	-1.22	4.98
KAI3 (IL-2 2.5 ng/mL) [10]	2.52	-4.37	-1.43	15	20.2
KHYG-1 (IL-2 2.5 ng/mL) [11]	-7.51	-5.95	-2.77	2.64	8.1
NK-92 (IL-2 2.5 ng/mL) [12]	-15.5	-4.32	5.74	16.5	24.4
NK-YS (IL-2 2.5 ng/mL) [13]	-5.16	-9.39	-4.94	-0.21	16.8
NKL (IL-2 2.5 ng/mL) [14]	-1.85	1.84	11.4	24.8	35.1
SNK-6 (IL-2 2.5 ng/mL) [15]	0.67	-10.6	-7.54	-16.4	-0.64
YT (IL-2 2.5 ng/mL) [16]	-4.93	-5.67	-0.27	4.17	16.1
[1]	-6.27	-2.98	-3.15	2.74	8.42
[3]	-10.4	4.55	1.17	-2.44	3.9
[4]	-5.17	5.1	-2.11	-6.67	-1.34
[17]	0.25	12.5	7.25	8.57	1.55
[18]	-6.06	5.96	3.62	7.14	-4.86

Settings	drug sensitivity score
DERL-7 (IL-2 2.5 ng/mL) [19]	0
IMC-1 (IL-2 20 ng/mL) [6]	0
KAI3 (IL-2 2.5 ng/mL) [20]	2.05
KHYG-1 (IL-2 2.5 ng/mL) [21]	0
NK-92 (IL-2 2.5 ng/mL) [22]	2.65
NK-YS (IL-2 2.5 ng/mL) [23]	0.34
NKL (IL-2 2.5 ng/mL) [24]	5.19
SNK-6 (IL-2 2.5 ng/mL) [25]	0
YT (IL-2 2.5 ng/mL) [26]	0.73
[5]	0
[7]	0
[8]	0
[27]	0
[28]	0
